Test results published in patent US20200239530A1, “COMPOUNDS AND METHODS OF MODULATING PROTEIN DEGRADATION” (Vividion Therapeutics, Inc., priority 2017, published 2020).

Legend:
Test in all cases: Cysteine liganding, probe competition
Format in all cases: binding
[1] = target: T1, EEF1A1 Elongation factor 1-alpha 1 (Homo sapiens, UniProt P68104)
T1 construct: 200 μL of lysate containing 5 mg/ml proteome was treated with 2 μL of 100× compound stock; endogenous in cells
T1 sequence (P68104 1-462): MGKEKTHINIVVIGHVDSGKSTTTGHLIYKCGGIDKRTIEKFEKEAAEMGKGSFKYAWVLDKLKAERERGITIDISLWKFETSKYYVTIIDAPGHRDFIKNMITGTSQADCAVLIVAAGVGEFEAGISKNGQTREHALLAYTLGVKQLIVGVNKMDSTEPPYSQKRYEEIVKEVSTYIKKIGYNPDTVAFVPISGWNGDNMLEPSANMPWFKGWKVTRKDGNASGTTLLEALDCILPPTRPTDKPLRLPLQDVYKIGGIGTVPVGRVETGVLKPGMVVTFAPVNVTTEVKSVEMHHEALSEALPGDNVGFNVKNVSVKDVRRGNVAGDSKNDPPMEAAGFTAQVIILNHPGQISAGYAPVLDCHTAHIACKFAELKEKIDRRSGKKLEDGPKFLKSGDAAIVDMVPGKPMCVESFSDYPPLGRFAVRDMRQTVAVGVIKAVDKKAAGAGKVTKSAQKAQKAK
Procedure, shortened: (§1)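 Steps: sonicate cells in cold PBS; treat 5 mg/ml lysate with compound (25° C, 1 hr); add desthiobiotin iodoacetamide probe from a 10 mM stock (25° C, 1 hr); precipitate, reduce, alkylate, digest with trypsin; capture labelled peptides on streptavidin for analysis.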

[2] = target: T2, DIP2A Disco-interacting protein 2 homolog A (Homo sapiens, UniProt Q14689); details: for Liganded: DIP2A Res# 6, uniprot Q14689
T2 construct: 200 μL of lysate containing 5 mg/ml proteome was treated with 2 μL of 100× compound stock; endogenous in cells
T2 sequence (Q14689 whole entry): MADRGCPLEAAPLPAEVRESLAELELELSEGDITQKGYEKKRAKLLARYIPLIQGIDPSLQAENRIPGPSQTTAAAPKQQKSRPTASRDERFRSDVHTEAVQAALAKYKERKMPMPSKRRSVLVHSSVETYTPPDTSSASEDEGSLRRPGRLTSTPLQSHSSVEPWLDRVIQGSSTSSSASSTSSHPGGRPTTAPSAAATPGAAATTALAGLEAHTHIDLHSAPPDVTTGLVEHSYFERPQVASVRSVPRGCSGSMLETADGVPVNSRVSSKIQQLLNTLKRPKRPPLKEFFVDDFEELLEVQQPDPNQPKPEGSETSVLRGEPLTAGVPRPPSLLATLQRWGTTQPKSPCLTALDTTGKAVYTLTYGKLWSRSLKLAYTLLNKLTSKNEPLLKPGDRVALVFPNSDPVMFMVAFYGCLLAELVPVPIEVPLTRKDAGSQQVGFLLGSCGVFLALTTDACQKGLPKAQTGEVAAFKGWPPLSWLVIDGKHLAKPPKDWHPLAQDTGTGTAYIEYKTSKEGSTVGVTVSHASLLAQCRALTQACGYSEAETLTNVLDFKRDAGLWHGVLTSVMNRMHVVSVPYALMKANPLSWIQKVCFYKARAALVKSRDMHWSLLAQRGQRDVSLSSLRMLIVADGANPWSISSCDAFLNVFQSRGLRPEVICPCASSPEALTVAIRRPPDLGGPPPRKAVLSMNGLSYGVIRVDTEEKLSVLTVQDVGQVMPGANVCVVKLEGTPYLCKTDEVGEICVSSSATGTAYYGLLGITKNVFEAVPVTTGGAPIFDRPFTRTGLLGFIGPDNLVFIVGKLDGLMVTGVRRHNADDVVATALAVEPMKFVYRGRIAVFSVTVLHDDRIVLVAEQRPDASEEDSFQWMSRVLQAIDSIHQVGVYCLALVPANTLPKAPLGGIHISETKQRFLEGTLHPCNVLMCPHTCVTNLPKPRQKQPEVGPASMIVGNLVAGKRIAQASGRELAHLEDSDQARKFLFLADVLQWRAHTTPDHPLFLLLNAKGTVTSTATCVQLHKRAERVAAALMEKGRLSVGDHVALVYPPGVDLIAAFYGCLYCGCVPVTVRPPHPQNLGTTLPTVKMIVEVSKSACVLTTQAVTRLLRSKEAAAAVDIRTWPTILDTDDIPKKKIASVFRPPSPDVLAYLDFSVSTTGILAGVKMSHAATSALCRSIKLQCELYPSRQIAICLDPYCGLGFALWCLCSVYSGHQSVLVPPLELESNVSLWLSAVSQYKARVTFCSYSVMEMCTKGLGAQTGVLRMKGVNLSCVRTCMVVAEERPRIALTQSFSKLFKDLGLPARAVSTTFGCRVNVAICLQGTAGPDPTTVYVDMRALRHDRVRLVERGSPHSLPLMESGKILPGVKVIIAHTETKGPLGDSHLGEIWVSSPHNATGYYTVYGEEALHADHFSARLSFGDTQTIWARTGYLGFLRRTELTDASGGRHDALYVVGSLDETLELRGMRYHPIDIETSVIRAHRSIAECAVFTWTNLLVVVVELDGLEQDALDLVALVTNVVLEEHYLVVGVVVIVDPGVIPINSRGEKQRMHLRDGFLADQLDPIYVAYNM
Procedure, shortened: as §1

[3] = target: T3, E3 ubiquitin-protein ligase pellino homolog 1 (PELI1) (Homo sapiens, UniProt Q96FA3)
T3 construct: Cells were resuspended in cold PBS on ice and sonicated with a probe sonicator to achieve lysis; endogenous in cells
T3 sequence (Q96FA3 whole entry): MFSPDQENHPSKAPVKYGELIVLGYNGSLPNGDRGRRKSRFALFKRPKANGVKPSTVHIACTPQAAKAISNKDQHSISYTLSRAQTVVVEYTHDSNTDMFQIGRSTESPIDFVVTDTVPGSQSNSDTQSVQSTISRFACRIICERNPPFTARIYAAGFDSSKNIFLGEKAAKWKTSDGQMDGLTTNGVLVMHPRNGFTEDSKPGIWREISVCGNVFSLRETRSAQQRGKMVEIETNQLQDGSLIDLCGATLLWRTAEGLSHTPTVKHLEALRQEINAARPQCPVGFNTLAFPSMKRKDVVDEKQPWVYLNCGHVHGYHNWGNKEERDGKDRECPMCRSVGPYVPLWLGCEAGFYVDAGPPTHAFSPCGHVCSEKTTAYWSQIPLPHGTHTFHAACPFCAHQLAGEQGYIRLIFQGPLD
Procedure, shortened: as §1

[4] = EEF1A1 Res# 363, uniprot P68104
[5] = EEF1A1 Res# 370, uniprot P68104

inhibition at 100 µM ([3]; read-out: KB05_100 uM_percent_inhibition) [%]	SMILES	Liganded [1, 4]	Liganded [1, 5]	Liganded [2]	KB03_100 uM_percent_inhibition ([3]; 100 uM) [%]	100 Max ([2]; uniprot Q14689)	100 ave ([2]; uniprot Q14689)	500 Max ([2]; uniprot Q14689)	500 ave ([2]; uniprot Q14689)
–	COc1ccc2c(c1)CCCN2C(=O)CCl [KB02]	YES	YES	YES	–	–	–	–	–
2	C=CC(=O)N(c1ccccc1)c1ccc(Br)cc1 [KB05]	–	–	–	–	–	–	–	–
–	O=C(CCl)Nc1cc(C(F)(F)F)cc(C(F)(F)F)c1 [KBO3]	YES	YES	YES	57	39.34	39.34	91.21	91.21
